In patent publication US9447090B2, “Imidazopyridine compounds” (Astellas Pharma Inc., priority 2011, dated 2016):

Assays:
[1] = molecular target: human purified sGC (Homo sapiens (Human), UniProt Q02108+Q02153); test: Measurement of sGC activation (enzyme): cGMP produced by human purified sGC, HTRF; type: biochemical; settings: for EC50: concentration giving 50% of maximum activation; for sGC activation [%]: activation when the compound was not added taken as 100%, maximum concentration 100 μM, with SNP
Procedure: The activity of sGC was evaluated by measuring the amount of a cyclic guanosine monophosphate (cGMP) which is produced by human purified sGC.
A test compound was dissolved in DMSO and diluted 20-fold with ultrapure water. 2 μL of the diluted test compound solution (maximum concentration 100 μM), 2 μL of a substrate solution [0.5 μM TEBA, 0.03 μM dithiothreitol, 0.01 μM GTP, 0.04 μM MgCl2, and 0.03 μM sodium nitroprusside (SNP)], and 6 μL of a human enzyme suspension were added to 384-well plates (manufactured by Greiner Bio-One), and incubated at room temperature for one hour. The quantitative determination of cGMP is using HTRF which based on the competition between sample cGMP and fluorescent dye labeled cGMP for binding to a cGMP-specific antibody.
The test results of some Example compounds that are the compounds of the formula (I) of the present invention are shown below. The sGC activation of the test compound was calculated by taking the activation when the compound was not added as 100%. As compared with the activation when the compound was not added, it was recognized that a compound having a sGC activation of more than 300% has sGC activation. In addition, in Tables, Ex represents Example number in which the test compound is described and the sGC activation [%] represents sGC activation (%).
Furthermore, the EC50 [μM] value was calculated as another parameter for expressing sGC activation. This parameter indicates the concentration of the evaluated compound giving 50% of a maximum activation, which is calculated based on the maximum activation that compound of Example 102 is added, which is taken as 100%. In this connection, when a known sGC activator, YC-1 (Lificiguat, [5-(1-benzyl-1H-indazol-3-yl)-2-furyl]methanol), was evaluated according to the above Test Example 1, its maximum activation was 52% of the maximum activation for compound of Example 102. Further, “−” means no evaluation.

[2] = tested on: Wistar male rats; test: Blood flow increasing in vivo: hind limb blood flow in anesthetized rats, laser blood flow imaging; settings: rat hind limb, oral, 2 hours after administration
Procedure: The hind limb blood flow in rats anesthetized with pentobarbital was measured by the following test method. Wistar male rats were used. […] Thus prepared administration liquid was orally administered, and 2 hours later, the hind limb blood flow was measured using a laser blood flow imaging device (PIM II Integral) under anesthesia with intraperitoneal administration of 60 mg/kg of pentobarbital.

[3] = tested on: Wistar male rats; test: Measurement of antihypertensive effect in vivo: blood pressure via carotid cannula after oral dosing; settings: rat
Procedure: Wistar male rats were used. Three days prior to administration of a drug, a cannula (PE-50, Becton, Dickinson and Company, Japan) filled with heparin physiological saline (200 U/mL, Ajinomoto Pharmaceuticals Co., Ltd.) was inserted and placed in the common carotid artery under anesthesia with intraperitoneal administration of 60 mg/kg of pentobarbital. The other end of the cannula was exposed to the back neck through the subcutaneous. After the recovery period, the placed cannula was connected to a pressure transducer (Life Kit DTS DX-100, Nihon Kohden Corporation) to record the blood pressure waveform through a Polygraph (AP-641G, Nihon Kohden Co., Ltd.) and PowerLab (ML870 PowerLab8/30 (AD Instruments Japan)). The heart rate was calculated using a heart rate measuring unit (AT-601G, Nihon Kohden Co., Ltd.). After stabilization of the blood pressure, the drug was orally administered to measure the blood pressure and the heart rates. The test compounds were administered by appropriately adding N,N-dimethylformamide, Polyethylene Glycol 400, TWEEN 80, a 0.5% aqueous methylcellulose solution, and a 0.5 M aqueous sodium bicarbonate solution, and 0.1 M hydrochloric acid therein according to the compounds and dissolving it.
The results from the measurement according to Test Example 3 are shown below according to the following criteria with a maximum value of the mean blood pressure reduction. A: <20 mmHg, B: 20 to 40 mmHg, and C: >40 mmHg

[4] = maximum activation of Example 102 taken as 100%

human purified sGC, sequence (Q02153 whole entry): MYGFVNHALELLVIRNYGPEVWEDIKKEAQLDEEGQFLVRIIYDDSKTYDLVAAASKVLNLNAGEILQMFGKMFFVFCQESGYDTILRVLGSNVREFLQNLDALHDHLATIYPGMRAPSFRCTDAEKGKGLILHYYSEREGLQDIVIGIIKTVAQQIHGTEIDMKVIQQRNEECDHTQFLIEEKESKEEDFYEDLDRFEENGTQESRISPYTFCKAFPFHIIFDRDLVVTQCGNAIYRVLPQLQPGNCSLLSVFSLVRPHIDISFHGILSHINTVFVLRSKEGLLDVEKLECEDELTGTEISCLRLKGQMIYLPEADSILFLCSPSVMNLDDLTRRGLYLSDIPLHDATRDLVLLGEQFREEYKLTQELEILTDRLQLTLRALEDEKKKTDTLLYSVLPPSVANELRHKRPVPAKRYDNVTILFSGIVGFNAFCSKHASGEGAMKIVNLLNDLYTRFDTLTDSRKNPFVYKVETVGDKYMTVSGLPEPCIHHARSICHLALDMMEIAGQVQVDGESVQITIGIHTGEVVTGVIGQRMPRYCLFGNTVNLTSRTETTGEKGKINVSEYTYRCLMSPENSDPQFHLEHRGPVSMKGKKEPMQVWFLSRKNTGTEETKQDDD
human purified sGC, sequence (Q02108 whole entry): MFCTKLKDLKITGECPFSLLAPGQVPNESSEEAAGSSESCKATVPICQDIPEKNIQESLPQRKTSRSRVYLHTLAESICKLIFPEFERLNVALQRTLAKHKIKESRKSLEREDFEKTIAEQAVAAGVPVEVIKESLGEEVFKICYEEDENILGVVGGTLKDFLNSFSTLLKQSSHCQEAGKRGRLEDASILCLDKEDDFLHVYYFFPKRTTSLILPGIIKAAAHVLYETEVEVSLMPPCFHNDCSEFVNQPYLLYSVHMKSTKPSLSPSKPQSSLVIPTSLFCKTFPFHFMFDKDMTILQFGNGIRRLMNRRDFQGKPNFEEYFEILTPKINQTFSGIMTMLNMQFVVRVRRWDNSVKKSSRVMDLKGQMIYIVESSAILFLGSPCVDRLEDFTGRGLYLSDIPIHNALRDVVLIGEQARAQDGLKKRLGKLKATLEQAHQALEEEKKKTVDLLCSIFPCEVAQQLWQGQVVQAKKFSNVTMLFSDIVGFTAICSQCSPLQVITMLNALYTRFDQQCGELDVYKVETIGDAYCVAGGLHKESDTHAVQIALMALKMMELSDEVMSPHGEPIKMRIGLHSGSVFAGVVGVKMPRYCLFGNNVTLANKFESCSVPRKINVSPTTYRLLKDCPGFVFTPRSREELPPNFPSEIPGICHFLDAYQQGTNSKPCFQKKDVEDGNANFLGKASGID

Compound	EC50 [1, 4] [µM]	blood flow increasing effect ([2]; dose of 10 mg/kg)	sGC activation [%] [1] [%]	also measured
Cc1nc2c(OCc3cccc(F)c3F)cccn2c1C(=O)N[C@@H]1c2ccccc2[C@H](O)[C@H]1O (stereo in doubt) [Ex 797]	8.9			
Cc1nc2c(OCc3ccccc3F)cccn2c1C(=O)N[C@@H]1c2ccccc2[C@H](O)[C@H]1O (stereo in doubt) [Ex 798]	8.6			
Cc1nc2c(OCC3CCCCC3)cccn2c1C(=O)N[C@@H](CO)c1ccccc1 [Ex 102]	2.8	exhibited a blood flow increasing effect		
Cc1nc2c(OCc3c(F)cccc3F)cccn2c1C(=O)N[C@@H](CO)c1ccccc1.Cl [Ex 119]	2.9	exhibited a blood flow increasing effect		
Cc1nc2c(OCC3CCCCC3)cccn2c1C(=O)NC(CO)CO [Ex 126]	11			
Cc1nc2c(OCC3CCCCC3)cccn2c1C(=O)N[C@@H](CC(=O)O)CC1CCC1 [Ex 179]	2.7	exhibited a blood flow increasing effect		
Cc1nc2c(OCCC(C)(C)C)cccn2c1C(=O)N[C@@H](CO)c1ccccc1.Cl [Ex 205]			>1000	
Cc1nc2c(OCC3CCCCC3)cccn2c1C(=O)N[C@H]1CCCN(C)C1 [Ex 226]	6.7		>1000	
Cc1nc2c(OCc3c(F)ccc(F)c3F)cccn2c1C(=O)N[C@@H](CO)c1ccccc1.Cl [Ex 244]			>1000	blood flow increasing effect ([2]; dose of 30 mg/kg): exhibited a blood flow increasing effect
Cc1nc2c(OCc3c(F)cccc3F)cccn2c1C(=O)N[C@H]1CCCN(S(N)(=O)=O)C1 [Ex 247]	2.4	exhibited a blood flow increasing effect		
Cc1nc2c(OCC3CCCCC3)cccn2c1C(=O)N[C@@H](CC(=O)O)c1ccccc1 [Ex 251]	6.1	exhibited a blood flow increasing effect	>1000	
Cc1nc2c(OCC3CCCCC3)cccn2c1C(=O)N[C@@H]1c2ccccc2C[C@H]1C(=O)O [Ex 321]	4.5	exhibited a blood flow increasing effect	>1000	
Cc1nc2c(OCC3CCCCC3)cccn2c1C(=O)N[C@@H](C)c1cccc(C(=O)O)c1 [Ex 323]	13			
Cc1nc2c(OCC3CCCCC3)cccn2c1C(=O)N[C@H]1CCN(C)C1 [Ex 341]	6.9		980	blood flow increasing effect ([2]; dose of 30 mg/kg): exhibited a blood flow increasing effect
Cc1nc2c(OCc3c(F)cccc3F)cccn2c1C(=O)NC(CO)(CO)c1ccccc1.Cl [Ex 424]	2.4	exhibited a blood flow increasing effect	>1000	
Cc1nc2c(OCc3c(F)cccc3F)cccn2c1C(=O)N[C@@H]1c2ccccc2C[C@H]1O.Cl [Ex 430]	2.6	exhibited a blood flow increasing effect		
Cc1nc2c(OCc3c(F)cccc3F)cccn2c1C(=O)N[C@@H]1c2ccccc2C[C@@H]1O.Cl [Ex 431]				Blood pressure reduction (maximum value of the mean blood pressure reduction) ([3]; 10 mg/kg po): B (B: 20 to 40 mmHg)
Cc1nc2c(OCc3c(F)cccc3F)cccn2c1C(=O)N[C@@H]1c2ccccc2C[C@H]1C(=O)O [Ex 434]	7.3			Blood pressure reduction (maximum value of the mean blood pressure reduction) ([3]; 30 mg/kg po): C (C: >40 mmHg)
Cc1nc2c(OCc3c(F)cccc3F)cccn2c1C(=O)N[C@@H](CO)c1cccc(F)c1.Cl [Ex 436]			>1000	
Cc1cccc2c1C[C@@H](C(=O)O)[C@@H]2NC(=O)c1c(C)nc2c(OCC3CCCCC3)cccn12 [Ex 693]	17	exhibited a blood flow increasing effect	>1000	

Compound	EC50 [1, 4] [µM]	blood flow increasing effect ([2]; dose of 10 mg/kg)	sGC activation [%] [1] [%]	also measured
Cc1cccc2c1C[C@@H](C(=O)O)[C@@H]2NC(=O)c1c(C)nc2c(OCc3c(F)cccc3F)cccn12 [Ex 698]	19	exhibited a blood flow increasing effect	>1000	
Cc1nc2c(OCc3c(F)cccc3F)cccn2c1C(=O)N[C@@H]1c2c(F)cccc2C[C@H]1C(=O)O [Ex 699]	15	exhibited a blood flow increasing effect	>1000	
Cc1nc2c(OCc3c(F)ccc(F)c3F)cccn2c1C(=O)N[C@@H]1c2ccccc2C[C@H]1C(=O)O [Ex 702]	6.2	exhibited a blood flow increasing effect	>1000	
Cc1nc2c(OCC3CCCCC3)cccn2c1C(=O)N[C@@H]1c2c(F)cccc2C[C@H]1C(=O)O [Ex 704]	11	exhibited a blood flow increasing effect	>1000	
Cc1nc2c(OCC3CCCCC3)cccn2c1C(=O)N[C@H]1c2c(F)cccc2C[C@@H]1C(=O)O [Ex 705]	11			
Cc1nc2c(OCC3CCCCC3)cccn2c1C(=O)N[C@@H]1c2ccc(F)cc2C[C@H]1C(=O)O [Ex 706]	4.7	exhibited a blood flow increasing effect	>1000	
Cc1nc2c(OCc3c(F)cccc3F)cccn2c1C(=O)N[C@@H]1c2ccccc2[C@@H](O)[C@H]1O [Ex 759]	2.2	exhibited a blood flow increasing effect		
Cc1nc2c(OCc3c(F)cccc3F)cccn2c1C(=O)N[C@H](c1ccccc1)[C@H](O)CO [Ex 760]	5.9	exhibited a blood flow increasing effect		
Cc1nc2c(OCc3c(F)cccc3F)cccn2c1C(=O)N[C@@]1(c2ccccc2)C[C@@H](O)[C@@H](O)C1 [Ex 766]	17			
Cc1nc2c(OCc3c(F)cccc3F)cccn2c1C(=O)N[C@]1(c2ccccc2)C[C@@H](O)[C@@H](O)C1 [Ex 767]	3	exhibited a blood flow increasing effect		
Cc1nc2c(OCc3c(F)cccc3F)cccn2c1C(=O)NC(C)(C)CO [Ex 772]	5.4			
Cc1nc2c(OCc3c(F)cccc3F)cccn2c1C(=O)N[C@H](C)CO [Ex 776]	15			
Cc1nc2c(OCc3c(F)cccc3F)cccn2c1C(=O)N[C@@H](CO)C(C)C [Ex 778]	6.3			
Cc1nc2c(OCc3c(F)cccc3F)cccn2c1C(=O)N[C@H]1CCCNC1 [Ex 822]	5.6			
Cc1ccc(C(CO)(CO)NC(=O)c2c(C)nc3c(OCc4c(F)cccc4F)cccn23)cc1 [Ex 827]				Blood pressure reduction (maximum value of the mean blood pressure reduction) ([3]; 10 mg/kg po): B (B: 20 to 40 mmHg)
Cc1nc2c(OCc3ccccc3F)cccn2c1C(=O)NC(CO)(CO)c1ccccc1 [Ex 828]	7.6			
Cc1nc2c(OCc3cccc(F)c3F)cccn2c1C(=O)NC(CO)(CO)c1ccccc1 [Ex 829]	2.7			
Cc1nc2c(OCc3c(F)cccc3F)cccn2c1C(=O)NC(CO)(CO)c1ccccn1 [Ex 834]	4.1	exhibited a blood flow increasing effect		
Cc1nc2c(OCC3CCCCC3)cccn2c1C(=O)N[C@@H](CC(=O)O)CC(C)C [Example 12, (3R)-3-({[8-(cyclohexylmethoxy)-2-methylimidazo[1,2-a]pyridin-3-yl]carbonyl}amino)-5-methylhexanoic acid]	3	exhibited a blood flow increasing effect		
OCc1ccc(-c2nn(Cc3ccccc3)c3ccccc23)o1 [YC-1, [5-(1-benzyl-1H-indazol-3-yl)-2-furyl]methanol, reference compound]				Emax ([1]; maximum activation of Example 102 taken as 100%, read-out: maximum activation relative to the maximum activation for compound of Example 102): 52%
